# Entries after “also recorded” stand apart in the source; their conditions may differ. Read-outs that look alike come from different tables or passages of the source.
# Assays:
# human subjects = test: Human sensory testing (gLMS) of API bitterness with blocker, as pre-rinse or admixture; type: in vivo
# Excerpt: Methods of evaluating the sensory properties of the API and admixtures with the blocker compounds of Formula A are adopted from Breslin PA, and Tharp CD, “Reduction of saltiness and bitterness after a chlorhexidine rinse,” Chem Senses. 2001 February; 26(2):105-16. More details are illustrated below.
# Subjects participate in the study after providing informed consent. Gender of the subjects is balanced between male and female. The subjects are adults with ages ranging from 20 years old to 50 years old. […] The participants are asked to refrain from eating, drinking, or chewing gum for 1 hr prior to testing. Subjects are trained to use the General Labeled Magnitude Scale (gLMS) following standard published procedures. See. e.g., Breslin P A, and Tharp C D. “Reduction of saltiness and bitterness after a chlorhexidine rinse,” Chem Senses. 2001 February; 26(2): 105-16; Keast and Breslin, “Bitterness suppression with zinc sulfate and Na-cyclamate: a model of combined peripheral and central neural approaches to flavor modification.” Pharm Res. 2005 November; 22(11):1970-7. Epub 2005 Aug. 26; Green et al, “Evaluating the ‘Labeled Magnitude Scale’ for measuring sensations of taste and smell.” Chem Senses. 1996 June; 21(3):323-34; Barry G. Green, et al, “Derivation and evaluation of a semantic scale of oral sensation magnitude with apparent ratio properties,” Chemical Senses, Volume 18, Issue 6, 1 Dec. 1993, Pages 683-702; and Bartoshuk L M, “Comparing sensory experiences across individuals: recent psychophysical advances illuminate genetic variation in taste perception.” Chem Senses. 2000 August; 25(4):447-60.
# The selected API (in racemic or L form as applicable) is diluted/dissolved in deionized (di) filtered water upon use into various concentrations. […] The API is prepared and dissolved in deionized filtered water or in […] 6-methylflavone to a final concentration. All solutions are stored on ice or at 4° C. to 8° C. and brought up to room temperature prior to testing.
# The following testing protocol is performed. The tested solutions are provided to the subjects in random order. Subjects rinsed with di water at least four times over a 2-minute period prior to tasting each solution. The subjects are instructed to wear nose clips to eliminate olfactory input, pour the whole solution in their mouth for 3-5 seconds, and rate the perceived sensation (including bitterness, sourness, astringency, burning, stinging and nausea) intensity of the solution while it remained in the mouth, prior to expectorating. Taste intensity is recorded on a computerized gLMS, analyzed and plotted.
# [1] = tested on: Gamma-aminobutyric acid A receptor alpha; conditions: in vitro; cited from earlier work
# androgen receptor = conditions: human MDA-kb2 cells; cited from earlier work
# hTBEC cells = test: hTBEC bioassay: antagonism of bitter-drug stimulation of human taste bud cells; type: cell-based; conditions: for IC50: Homo sapiens; for % maximum inhibition: at 50 μM antagonist
# Protocol: FIGS. 12A and 12B show concentration-response curves or relationships (CRCs) for antagonism of TAF or piperaquine stimulation of hTBEC cells with an optimal concentration of each bitter-tasting medicine in vitro. Each inhibition curve was fitted to the data so as to calculate an IC50 or the concentration that inhibits 50% of the signal. A Hill slope was calculated, along with the % maximal inhibition and the concentration of antagonist, 6-methylflavone, (indicated by the ref ST069348) required to fully block the response in the assay. These metrics were slightly different for antagonism by 6 -methylflavone of TAF versus piperaquine. FIG. 12A is a graph showing the suppression of human taste bud cells (hTBEC) cells with 6-methylflavone added to 300 micromolar TAF stimulated cells. […] FIG. 12B is a graph showing the suppression of hTBEC cells with 6-methylflavone added to 100 micromolar Piperaquine stimulated cells. IC50 is 2.0 μM for 6-methylflavone antagonism of Piperaquine stimulation.
# Using a primary hTBEC platform, a high throughput screening (HTS) was conducted with more than 2,000 small molecular weight purified phytochemicals and botanical extracts. The screen identified 40 antagonists that suppressed taste cell activation by target APIs. […] TAS2R1 is responsive to piperaquine and tenofovir. (See FIG. 4)
# TAS2R39 = target: T1, TAS2R39 (Homo sapiens, UniProt P59534); test: Blocking of TAS2R39 activity (HEK/TAS2R39) stimulated by Piperaquine or Tenofovir; type: cell-based; parameters: expressed in transfected cells; host or cells: HEK; conditions: 0.1 mM blocker
# T1 sequence (P59534 1-338): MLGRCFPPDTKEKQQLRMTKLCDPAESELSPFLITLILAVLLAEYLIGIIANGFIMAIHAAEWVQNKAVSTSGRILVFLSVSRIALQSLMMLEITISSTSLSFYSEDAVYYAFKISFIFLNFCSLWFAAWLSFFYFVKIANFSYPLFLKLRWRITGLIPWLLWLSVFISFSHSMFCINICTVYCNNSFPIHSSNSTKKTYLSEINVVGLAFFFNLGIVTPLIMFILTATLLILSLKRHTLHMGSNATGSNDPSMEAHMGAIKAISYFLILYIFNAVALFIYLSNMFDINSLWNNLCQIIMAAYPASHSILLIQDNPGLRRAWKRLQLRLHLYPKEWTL
# Protocol: FIG. 5A is a bar graph showing that the blocker 6-methylflavone (indicated by the arrow number 2) blocks the activity of taste receptor TAS2R39 to Piperaquine. Other blockers are unidentified compounds identified by the numbers following the concentrations under the X axis. Five candidates from the HTS screen blocked the activity of TAS2R39 to Piperaquine.
# FIG. 5B is a graph plotting the activity of taste receptor HEK/TAS2R39 in the presence of 0.5 mM Piperaquine (bold black line); the combination of 0.5 mM Piperaquine and 0.1 mM of 6-methylflavone (light gray line), and a control with 0.1 mM of the blocker 6-methylflavone (dotted line).
# Other blockers are identified by the numbers following the concentrations under the X axis.
# FIG. 7B is a graph plotting the activity of taste receptor TAS2R39 in the presence of 1 mM Tenofovir (bold black line); the combination of 1 mM Tenovir and 0.1 mM of 6-methylflavone (light gray line), and a control with 0.1 mM of the blocker 6-methylflavone (dotted line).
compound,measurement,setting,value
Cc1ccc2oc(-c3ccccc3)cc(=O)c2c1 [6-methylflavone],Blocking the bitter taste of piperaquine and TAF,"human subjects; admixture, subset of human subjects",effective antagonist
same,Suppression of TAF bitterness,"human subjects; another subject, FIGS. 11A/11B, 0.5 mg/mL TAF, pre-rinse then admixture, blocker 100 μM",worked
same,Suppression of TAF bitterness,"human subjects; another subject, FIGS. 11A/11B, 0.5 mg/mL TAF, pre-rinse then admixture, blocker 1 mM",worked even better
same,Suppression of TAF bitterness,"human subjects; one subject, FIGS. 8A/8B, 0.5 mg/mL TAF with and without 100 μM blocker",significant suppression
same,Suppression of TAF bitterness,"human subjects; one subject, FIGS. 9A/9B, 0.5 mg/mL TAF alone vs pre-rinse vs pre-rinse containing 100 μM blocker",did not show significant suppression
same,Suppression of TAF bitterness,"human subjects; one subject, FIGS. 10A/10B, 0.5 mg/mL TAF, pre-rinse then admixture, blocker 100 μM",no bitterness suppression
same,Average perceived bitterness intensity of piperaquine,"human subjects; piperaquine 8 mg/mL treated with 100 μM blocker, FIG. 6",affected
same,Blocking effect for TAF and piperaquine with added pre-rinse,"human subjects; pre-rinse with the blocker added, compared with admixture alone",stronger
same,Inhibition of [3H]-Ro-15-1788 binding,[1],has the ability to inhibit
same,"Agonist activity at androgen receptor, stimulation of luciferase activity",androgen receptor,agonist activity
same,IC50,"hTBEC cells; hTBEC cells stimulated with 100 micromolar Piperaquine, FIG. 12B, read-out: IC50 for antagonism of Piperaquine stimulation",2 µM
same,IC50,"hTBEC cells; hTBEC cells stimulated with 300 micromolar TAF, FIG. 12A, read-out: IC50 for antagonism of TAF stimulation",7.7 µM
same,% maximum inhibition,"hTBEC cells; 100 micromolar Piperaquine stimulated hTBEC cells, FIG. 12B",> 95%
same,% maximum inhibition,"hTBEC cells; 300 micromolar TAF stimulated hTBEC cells, FIG. 12A",> 95%
same,Hill slope,"hTBEC cells; hTBEC cells stimulated with 100 micromolar Piperaquine, FIG. 12B",1.992
same,Hill slope,"hTBEC cells; hTBEC cells stimulated with 300 micromolar TAF, FIG. 12A",2.18
same,Blocking the stimulation of hTBEC cells by bitter tasting drugs,"hTBEC cells; stimulated by TAF, racemic praziquantel and piperaquine",quite potent and effective
same,Inhibition of TAS2R39 activity to Piperaquine,"TAS2R39; 0.5 mM Piperaquine, FIG. 5A/5B",powerful antagonist; also recorded: strong inhibition
same,Inhibition of TAS2R39 activity in response to Tenofovir (TAF),"TAS2R39; 1 mM Tenofovir, FIG. 7A/7B",powerful antagonist; also recorded: completely inhibited
